# Test system: normal human fibroblast (Newborn)
# Test: Cell toxicity test (MTT method)
# Type: cell-based
# Conditions: comparison in words
# Method: Cell toxicity of the compound of formula (1) is examined at concentrations ranging from 10^−6 to 10^−3%(W/V) using normal human fibroblast (Newborn), and the skin irritating property is examined by a patch test for the skin of normal adults. Further, the effect of increasing the collagen synthesis in a human fibroblast cell is measured to identify the cell regeneration effect of the compound of formula (1), photostability is identified by measuring ^1H NMR of the compound of formula (1) after the compound is irradiated by UV light (356 nm) at certain intervals of time, and thermal stability is identified by quantifying the amount at 40° C. (Experiments 1 to 5).
# In order to verify the primary stability as a material for medicines and cosmetics, cell toxicity of the retinal retaliate of formula (1) was determined according to MTT method (see: Mossman T., Rapid calorimetric assay for cellular growth & amp;survival:application to proliferation & amp;cytotoxity assays. Journal of Immunological Methods 65, 55–63, 1983) using normal human fibroblast (Newborn) and the results are shown in FIG. 1.
smiles,measurement,value
"CC1=C(/C=C/C(C)=C/C=C/C(C)=C/COC(=O)/C=C(C)/C=C/C=C(C)/C=C/C2=C(C)CCCC2(C)C)C(C)(C)CCC1 [Compound of formula (1), Retinyl retinoate]",cell toxicity (FIG. 1),"lower intracellular toxicity than retinol, retinoic acid, or derivatives thereof"
